Patent publication US20220273659A1, “HETEROCYCLIC COMPOUNDS AS KINASE INHIBITORS” (NUVATION BIO INC., priority 2019, published 2022)

Key:
CDK4 = molecular target: T1, CDK4 (Homo sapiens, UniProt P11802); assay: In vitro kinase inhibition IC50, luminescence (ADP Glo), retinoblastoma substrate; type: biochemical; settings: read-out: CDK4/D1 IC50
T1 construct: purchased Invitrogen PR8064A
Description: (§1) IC50 values of compounds against CDK4 and CDK6 were determined by luminescence using retinoblastoma as substrate. Kinase assays were performed in kinase buffer (#PV6135, Invitrogen Life Technologies, Grand Island, N.Y.) where total reaction volume was […] in 96-well half area white plates (#3693, Costar). One microliter of 25×test compounds at specific concentrations (e.g., final concentration range: 0.1 nM-200 nM) was mixed with 10 μL of 2.5×kinase (5 nM, CDK4 #PR8064A and CDK6 #PR8422B, Invitrogen) solution and 14 μL of 4× mixed solution with retinoblastoma (1 μM, #12-439, EMD Millipore, Hayward, Calif.) and ATP (25 μM, #V7038, Promega, Madison, Wis.). The plates were covered and incubated for 2H at room temperature. At the end of incubation, 25 μL of stop solution—ADP Glo reagent (#V7002, Promega) was added. After incubation for 45 min at room temperature, 50 μL of detection reagent (##V7002, Promega) was added. Readings were taken at 15 min and 45 min incubation after detection reagent was added in a Synergy Neo Plate reader (BioTek, Winooski, Vt.) at single excitation of 340 nm and Dual emission at 495 nm and 520 nm respectively. The following equations were used in the CDK4 and CDK6 assay data analysis. Percent inhibition (100-% activity) was fitted to the “four-parameter logistic model” in XLfit for determination of IC50 values.
(§2) Percent conversion of enzyme=100−{(RLUNo Drug−No enzyme*100)/RLUNo drug+Enzyme} Equation 1:
(§3) Percent conversion at each data point=100−{(RLUAverage(Drug+enzyme)*100)!RLUNo drug+Enzyme} Equation 2:
(§4) Percent Inhibition=100*(% Conversioneach data point/% ConversionEnzyme) Equation 3: […]

CDK6 = molecular target: T2, CDK6 (Homo sapiens, UniProt Q00534); assay: as above; type: biochemical; settings: read-out: CDK6/D1 IC50
T2 construct: purchased Invitrogen PR8422B
Description: as §1, §2, §3, §4

[1] = test system: DU4475 breast carcinoma cells; assay: Cancer cell proliferation assay, single agent (cell viability); type: cell-based; settings: Homo sapiens, DU-4475; Table 4; Rb negative; treatment 144 Hr with medium change at 72 Hr; Cell Titer-Glo or resazurin
Description: (§5) The effects of test compounds were studied in three breast cancer cell lines of different subtype. The cancer cells (Table 3) were harvested during the logarithmic growth period and counted. Cell concentrations were adjusted to the appropriate number with respective medium and 90 μL cell suspensions were added to 96-well plates. After cells were seeded, the plates were shaken gently to distribute cells evenly and incubated at 37° C., 5% CO2 on day 1.
(§6) Cells were treated with test compounds at 7 to 9 concentrations within a desired concentration range (e.g. 1.1 nM-10 μM) on day 2 by series diluting the test compound stock solution (10 mM in DMSO) with culture medium. Treatment duration was 24 Hr for BT-549 cells and 144 Hr (with a medium change at 72 Hr) for MCF-7 and DU4475 cells. Cell viability was assessed by Cell Titer-Glo® as recommended by Promega (Cat. No.: G7572), or by resazurin assay (Sigma Aldrich, Cat. No.: R7017) post treatment.
(§7) Cell viability data were plotted using GraphPad Prism (GraphPad Software, Inc., San Diego, Calif.). In addition, a nonlinear regression model with a sigmoidal dose response and variable slope within GraphPad Prism was used to calculate the IC50 value of individual test compounds.

[2] = test system: MCF-7 breast adenocarcinoma cells; assay: as above; type: cell-based; settings: Homo sapiens, MCF7, Table 4; Rb positive; treatment 144 Hr with medium change at 72 Hr; Cell Titer-Glo or resazurin
Description: as §5, §6, §7

T1 sequence (P11802 whole entry): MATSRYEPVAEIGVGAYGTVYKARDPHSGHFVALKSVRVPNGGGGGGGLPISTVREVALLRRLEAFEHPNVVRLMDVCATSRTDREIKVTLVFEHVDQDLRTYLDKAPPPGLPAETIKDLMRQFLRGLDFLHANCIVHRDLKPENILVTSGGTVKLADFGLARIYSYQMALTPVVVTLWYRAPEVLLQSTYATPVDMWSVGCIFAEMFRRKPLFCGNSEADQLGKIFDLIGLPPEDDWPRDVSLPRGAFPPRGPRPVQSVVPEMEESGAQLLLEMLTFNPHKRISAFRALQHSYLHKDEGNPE
T1 sequence (P24385 whole entry partner): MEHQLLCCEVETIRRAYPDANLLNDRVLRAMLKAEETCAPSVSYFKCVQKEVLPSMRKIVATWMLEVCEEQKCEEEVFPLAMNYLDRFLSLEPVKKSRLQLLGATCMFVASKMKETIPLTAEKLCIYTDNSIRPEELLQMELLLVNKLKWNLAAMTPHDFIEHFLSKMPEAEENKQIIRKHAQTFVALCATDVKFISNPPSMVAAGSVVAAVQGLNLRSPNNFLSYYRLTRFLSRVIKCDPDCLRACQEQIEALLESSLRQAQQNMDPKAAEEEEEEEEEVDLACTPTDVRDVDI
T2 sequence (Q00534 whole entry): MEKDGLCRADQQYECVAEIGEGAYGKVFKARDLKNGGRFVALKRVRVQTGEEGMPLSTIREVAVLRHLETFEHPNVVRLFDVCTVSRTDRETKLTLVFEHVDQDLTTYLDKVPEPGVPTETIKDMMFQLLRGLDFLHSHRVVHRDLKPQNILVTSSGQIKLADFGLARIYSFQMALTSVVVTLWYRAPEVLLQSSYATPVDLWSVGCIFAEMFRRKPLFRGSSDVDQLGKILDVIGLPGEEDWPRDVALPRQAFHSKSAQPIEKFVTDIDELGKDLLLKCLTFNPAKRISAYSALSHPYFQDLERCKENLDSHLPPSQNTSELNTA
T2 sequence (P24385 whole entry partner): as the sequence (P24385 whole entry partner) above

SMILES | IC50 (CDK4) [nM] | IC50 (CDK6) [nM] | IC50 [1] [nM] | IC50 [2] [nM]
N#Cc1cc2cnc(Nc3ccc4c(c3)CCNC4)nc2n(CC2CC2)c1=O [Compound No. 85, 8-(cyclopropylmethyl)-7-oxo-2-((1,2,3,4-tetrahydroisoquinolin-6-yl)amino)-7,8-dihydropyrido[2,3-d]pyrimidine-6-carbonitrile] | > 200 | > 190 | 725 | 723
CN(C)CCN1CCc2ccc(Nc3ncc4cc(C#N)c(=O)n(C5CCCC5)c4n3)cc2C1=O [Compound No. 68, 8-cyclopentyl-2-((2-(2-(dimethylamino)ethyl)-1-oxo-1,2,3,4-tetrahydroisoquinolin-7-yl)amino)-7-oxo-7,8-dihydropyrido[2,3-d]pyrimidine-6-carbonitrile] | > 200 | > 200 | > 10000 | > 10000
N#Cc1cc2cnc(Nc3cc4c(cc3F)CNCC4)nc2n(C2CCCC2)c1=O [Compound No. 84, 8-cyclopentyl-2-((7-fluoro-1,2,3,4-tetrahydroisoquinolin-6-yl)amino)-7-oxo-7,8-dihydropyrido[2,3-d]pyrimidine-6-carbonitrile] | > 200 | 116 | 2520 | 2000
CN(C)CCN1CCC(Nc2ncc3cc(C#N)c(=O)n(C4CCCC4)c3n2)CC1 [Compound No. 67, 8-cyclopentyl-2-((1-(2-(dimethylamino)ethyl)piperidin-4-yl)amino)-7-oxo-7,8-dihydropyrido[2,3-d]pyrimidine-6-carbonitrile] | > 140 | > 200 | 4450 | 1640
CC(C)Cn1c(=O)c(C#N)cc2cnc(Nc3ccc4c(c3)CCNC4)nc21 [Compound No. 81, 8-isobutyl-7-oxo-2-((1,2,3,4-tetrahydroisoquinolin-6-yl)amino)-7,8-dihydropyrido[2,3-d]pyrimidine-6-carbonitrile] | > 200 | 137 | 585 | 641

Stronger by IC50 (CDK6), values ahead:

IC50 (CDK4) [nM] | IC50 (CDK6) [nM] | IC50 [1] [nM] | IC50 [2] [nM] | SMILES
> 200 | 32 | 4740 | 3590 | CN(C)CCN1CCc2nc(Nc3ncc4cc(C#N)c(=O)n(C5CCCC5)c4n3)ccc2C1 [Compound No. 64, 8-cyclopentyl-2-((6-(2-(dimethylamino)ethyl)-5,6,7,8-tetrahydro-1,6-naphthyridin-2-yl)amino)-7-oxo-7,8-dihydropyrido[2,3-d]pyrimidine-6-carbonitrile]
7.5 | 11 | 4220 |  | Cc1c(C#N)c(=O)n(C2CCCC2)c2nc(NC3CCN(S(C)(=O)=O)CC3)ncc12 [Compound No. 389, 8-cyclopentyl-5-methyl-2-(1-(methylsulfonyl)piperidin-4-ylamino)-7-oxo-7,8-dihydropyrido[2,3-d]pyrimidine-6-carbonitrile]
11 | 9 | > 5260 |  | CC1(C)CCCC1n1c(=O)c(C#N)cc2cnc(NC3CCN(S(C)(=O)=O)CC3)nc21 (stereo not drawn) [Compound No. 388, 8-(2,2-dimethylcyclopentyl)-2-(1-(methylsulfonyl)piperidin-4-ylamino)-7-oxo-7,8-dihydropyrido[2,3-d]pyrimidine-6-carbonitrile]
 | 5 | 1650 | 793 | CC(=O)N1CCc2cc(Nc3ncc4cc(C#N)c(=O)n(C5CCCC5)c4n3)ccc2C1 [Compound No. 71, 2-((2-acetyl-1,2,3,4-tetrahydroisoquinolin-6-yl)amino)-8-cyclopentyl-7-oxo-7,8-dihydropyrido[2,3-d]pyrimidine-6-carbonitrile]
 | 1 | 985 | 330 | CN(C)CCCN1CCc2cc(Nc3ncc4cc(C#N)c(=O)n(C5CCCC5)c4n3)ccc2C1 [Compound No. 72, 8-cyclopentyl-2-((2-(3-(dimethylamino)propyl)-1,2,3,4-tetrahydroisoquinolin-6-yl)amino)-7-oxo-7,8-dihydropyrido[2,3-d]pyrimidine-6-carbonitrile]
